One series concerns mice. Briefly: hypocholesterolemic activity, regimen rich in cholesterol and cholic acid. Format: in vivo. To be noted: 400 mg/kg per os. Here is the method: The hypocholesterolemic activity was determined in mice subjected to a regimen rich in cholesterol and cholic acid for 7 days. After administration per os of the production of Example 6 in a dose of 400 mg/kg, a 21% reduction of cholesterolemia was noted on the 6th and 7th days. This drop in cholesterolemia was accompanied by a 20% reduction of the […] fraction, the HDL/cholesterol ratio being equal to 1.01.

Series [1] deals with right auricle of a guinea pig beating spontaneously. Briefly: antihistaminic activity antiH2 in vitro, histamine-induced chronotropic effect. The format is cell-based. To be noted: for intrinsic chronotropic effect / inhibition at 100 µg/mL: 100 microg/ml. The protocol: Antihistaminic activity antiH2 was determined in vitro on the right auricle of a guinea pig beating spontaneously.

Another series is described as follows: in vivo. To be noted: mouse, mice, read-out: Percentage of mortality. Here is the method: The toxicity was determined in mice for various ways of administraion.
The subject of series [2] is rats. Briefly: diuretic activity, sodium excretion. Format: in vivo. To be noted: 20 mg/kg per os. The protocol: The diuretic activity was determined in rats subjected to a hydric regimen and evaluated by the ratio of sodium excreted in the treated animals to the sodium excreted in control animals. The products of Examples 3 and 7 multiplied the sodium excretion by 4.2 and 4.9 respectively at a dose of 20 mg/kg per os.

Series [3] has as its system spontaneously hypertensive rat. Briefly: spontaneously hypertensive rat, systolic pressure. The format is in vivo. The settings on record: orally 100 mg/kg. Here is the method:
In the model of the spontaneously hypertensive rat, the product of Example 13, administered orally in a dose of 100 mg/kg, caused a drop in systolic pressure of 14 and 15% respectively after two and four hours. The product of Example 14, administered in a dose of 100 mg/kg under the same conditions, caused a reduction of 21% of the systolic pressure after six hours.

For series [4], the system named is rats. Briefly: antiallergic activity, cutaneous passive anaphylaxis test. Format: in vivo. The protocol:
The antiallergic activity was determined in rats in the cutaneous passive anaphylaxis test. The animals sensitized by an intradermic injection of IgE immediately received, after administration of the product to be tested, an intravenous injection of ovalbumin and Evans blue. The products of Examples 3 and 4 caused, at 10 mg/kg, 53 and 60% respectively inhibition of the Evans blue spot.

Series [5] deals with guinea pig ileum. Briefly: antihistaminic activity antiH1 in vitro, contractions induced by histamine. The format is cell-based. To be noted: Cavia porcellus. Here is the method:
The antihistaminic activity antiH1 was determined in vitro on guinea pig ileum.

The subject of series [6] is right auricle of a guinea pig stimulated electrically. Briefly: positive inotropic activity in vitro. Format: cell-based. The settings on record: Cavia porcellus; 100 microg/ml; read-out: increase of the auricle contractile force. The protocol: The positive inotropic activity was determined in vitro on the right auricle of a guinea pig stimulated electrically.
The subject of series [7] is rats. Briefly: stress ulcer test. The format is in vivo. The settings on record: 25 mg/kg per os. The source says:
The antiulcerigenic activity was shown in the stress ulcer test.

A further series in a line: ulcerigenic effect. The format is in vivo. To be noted: 200 mg/kg per os.
Series [8] relates to rats. Briefly: carrageenan edema test. Format: in vivo. To be noted: 100 mg/kg per os, after 4 hours. The source says: The antiinflammatory activity was brought out in the carrageenan edema test in rats.
(In general: The carrageenan paw model is a standard test of acute inflammation.)

For series [9], the system named is guinea pig ileum. Briefly: contractions induced by serotinin in vitro. The format is cell-based. The settings on record: Cavia porcellus; 25 microg/ml.
Setting [10] is: Cavia porcellus, 5 microg/ml of histamine.
Where [11] appears, read: ip, intraperitoneally 200 mg/kg.
Where [12] appears, read: ip, intraperitoneally 100 mg/kg.

Molecules are shown by their SMILES. Like-named read-outs stand apart in the source and are kept apart here.

`CCC1CCCCN1CC1CN=C(N)O1` (stereo not shown) [Example 6, 2-amino-5-(2-ethylpiperidinomethyl)-2-oxazoline]: in the series with mice, the HDL/cholesterol ratio was determined as 1.01 and the “reduction of the HDL-VLDL fraction” value is 20%. This compound also showed a reduction of cholesterolemia in the series on mice (6th and 7th days) of 21%. Besides, the intrinsic chronotropic effect entry in series [1] is given as “without exhibiting intrinsic chronotropic effect”. The compound further showed an inhibition at 100 µg/mL in series [1] (setting [10]) above 50%. Besides, the mortality in the series “in vivo” (setting [11]) was found to be 0%. Besides, in the series “in vivo” (po, orally 300 mg/kg), the mortality turned out to be 0%.
On to `NC1=NCC(CN2CCOCC2)O1` (stereo not shown) [Example 7, 2-amino-5-morpholinomethyl-2-oxazoline], for which the “sodium excretion multiplied by (ratio treated to control animals)” value with rats [2] is listed as 4.9. Besides, the mortality in “in vivo” (po, orally 300 mg/kg) was 100%.
Compound `C=CCN1CCN(CC2CN=C(N)O2)CC1` (stereo not shown) [Example 14] showed an inhibition at 50 µg/mL in series [1] (Cavia porcellus, 50 microg/ml, 5 microg/ml of histamine) above 50%. Besides, the “reduction of the systolic pressure” value in series [3] (after six hours) was found to be 21%. For the same compound, the mortality in the series “in vivo” (setting [11]) amounted to 0%; in “in vivo” (po, orally 300 mg/kg), 0%.
Turning to `NC1=NCC(CN2CCCC2)O1` (stereo not shown) [Example 3, 2-amino-5-pyrrolidinomethyl-2-oxazoline], the “sodium excretion multiplied by (ratio treated to control animals)” value in the series on rats [2] is 4.2. Also, in the series on rats [4] (10 mg/kg), the “inhibition of the Evans blue spot” value came out at 53%. Besides, the mortality was 0% in the series “in vivo” (setting [12]); 100% in the series “in vivo” (setting [11]); 0% in “in vivo” (po, orally 300 mg/kg).
For `CN1CCN(CC2CN=C(N)O2)CC1` (stereo not shown) [Example 10, 2-amino-(4-methylpiperazinyl)-5-methyl-2-oxazoline], the mortality in “in vivo” (setting [11]) is 0%; in “in vivo” (po, orally 300 mg/kg) it was 0%.
For `CCCCN(C)CC1CN=C(N)O1` (stereo not shown) [Example 2, 2-amino-5-(N-butyl-N-methylaminomethyl)-2-oxazoline], in series [1], the intrinsic chronotropic effect result is on record as “without exhibiting intrinsic chronotropic effect”. The inhibition at 100 µg/mL in series [1] (setting [10]) is above 50%. In addition, the mortality in the series “in vivo” (setting [12]) is 0%; in the series “in vivo” (setting [11]), 100%; in the series “in vivo” (po, orally 300 mg/kg), 0%.
Regarding `CC1CCN(CC2CN=C(N)O2)CC1` (stereo not shown) [Example 5, 2-amino-5-(4-methylpiperidinomethyl)-2-oxazoline], the mortality in the series “in vivo” (setting [12]) stood at 0%; in the series “in vivo” (setting [11]) it was 100%; in “in vivo” (po, orally 300 mg/kg), 0%.
Turning to `NC1=NCC(CN2CCCCC2)O1` (stereo not shown) [Example 4, 2-amino-5-piperidinomethyl-2-oxazoline], the “inhibition of the Evans blue spot” value in the series on rats [4] (10 mg/kg) was 60%. For the same compound, the mortality in the series “in vivo” (setting [12]) came to 0%; in “in vivo” (setting [11]), 100%; in the series “in vivo” (po, orally 200 mg/kg), 0%; in the series “in vivo” (po, orally 300 mg/kg), 33%.
Regarding `NC1=NCC(CN2CCN(Cc3ccccc3)CC2)O1` (stereo not shown) [Example 13], the inhibition at 100 µg/mL in series [1] (setting [10]) is above 50%; in the series on guinea pig ileum [5] (100 microg/ml) it was above 80%. Further, the “drop in systolic pressure” value in [3] (after four hours) was found to be 15%; in [3] (after two hours) it was 14%. Further, the mortality in “in vivo” (setting [12]) was determined as 0%; in the series “in vivo” (setting [11]) it was 100%; in “in vivo” (po, orally 300 mg/kg) it was 0%.
`CCN(CC)CC1CN=C(N)O1` (stereo not shown) [Example 1, 2-amino-N,N-5-diethylaminomethyl-2-oxazoline]: the “inhibition of the Evans blue spot” value with rats [4] (100 mg/kg per os) is 60%. Further, the intrinsic chronotropic effect result in series [1] is reported as “without exhibiting intrinsic chronotropic effect”. In [1] (setting [10]), the inhibition at 100 µg/mL was above 50%. The mortality in “in vivo” (setting [11]) was found to be 0%; in the series “in vivo” (po, orally 300 mg/kg) it was 0%. Moreover, the activation at 100 µg/mL in series [6] stood at 100%.
Consider `NC1=NCC(CN2CCN(c3ccccc3)CC2)O1` (stereo not shown) [Example 11], for which the “inhibition of the stress ulcer” value in the series on rats [7] came out at 88%. The inhibition at 25 µg/mL in the series on guinea pig ileum [5] (25 microg/ml) is above 80%; in the series with guinea pig ileum [9], 80%. The ulcerigenic effect entry in “ulcerigenic effect” is “very slightly ulcerigenic”. Also, the “inhibition of carrageenan edema” value in the series on rats [8] stood at 35%.
Take `NC1=NCC(CN2CCC(Cc3ccccc3)CC2)O1` (stereo not shown) [Example 12]: the mortality turned out to be 0% in “in vivo” (setting [12]); 100% in “in vivo” (setting [11]); 0% in the series “in vivo” (po, orally 100 mg/kg (footnote 1)); 100% in the series “in vivo” (po, orally 300 mg/kg).

As usually defined, the inhibition is how much of the control response was suppressed. What is called mortality is the percentage killed.
